The values below are quoted from earlier work in PMC5941726, “Evaluating Hepatobiliary Transport with ^18F-Labeled Bile Acids: The Effect of Radiolabel Position and Bile Acid Structure on Radiosynthesis and In Vitro and In Vivo Performance” (Contrast Media & Molecular Imaging, 2018).

What is called Ki is a measure of affinity in units of concentration, obtained from inhibition or displacement.

Conditions in all cases: Ki calculated from IC50-values extracted from literature; cited from earlier work
Data set [1] addresses T1, NTCP (Homo sapiens, UniProt Q14973).
T1 construct: host or cells: Chinese Hamster Ovary (CHO) cells
T1 sequence (Q14973 1-349): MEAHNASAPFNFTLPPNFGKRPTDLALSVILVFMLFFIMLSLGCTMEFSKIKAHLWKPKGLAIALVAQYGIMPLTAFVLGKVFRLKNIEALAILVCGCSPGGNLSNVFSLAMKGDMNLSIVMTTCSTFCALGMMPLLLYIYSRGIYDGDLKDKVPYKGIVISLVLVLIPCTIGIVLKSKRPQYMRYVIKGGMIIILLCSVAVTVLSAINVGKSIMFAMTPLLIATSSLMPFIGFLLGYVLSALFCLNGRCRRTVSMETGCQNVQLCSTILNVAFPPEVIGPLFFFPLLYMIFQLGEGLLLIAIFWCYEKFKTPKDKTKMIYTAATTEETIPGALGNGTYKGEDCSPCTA
On the set-up: method as in PMID 28273180.

Data set [2] deals with BSEP (Homo sapiens, UniProt O95342). On the set-up: purchased Pharmtox; method as in PMID 28273180.
In data set [3] the target is T2, OATP1B1 (Homo sapiens, UniProt Q9Y6L6).
T2 sequence (Q9Y6L6 1-691): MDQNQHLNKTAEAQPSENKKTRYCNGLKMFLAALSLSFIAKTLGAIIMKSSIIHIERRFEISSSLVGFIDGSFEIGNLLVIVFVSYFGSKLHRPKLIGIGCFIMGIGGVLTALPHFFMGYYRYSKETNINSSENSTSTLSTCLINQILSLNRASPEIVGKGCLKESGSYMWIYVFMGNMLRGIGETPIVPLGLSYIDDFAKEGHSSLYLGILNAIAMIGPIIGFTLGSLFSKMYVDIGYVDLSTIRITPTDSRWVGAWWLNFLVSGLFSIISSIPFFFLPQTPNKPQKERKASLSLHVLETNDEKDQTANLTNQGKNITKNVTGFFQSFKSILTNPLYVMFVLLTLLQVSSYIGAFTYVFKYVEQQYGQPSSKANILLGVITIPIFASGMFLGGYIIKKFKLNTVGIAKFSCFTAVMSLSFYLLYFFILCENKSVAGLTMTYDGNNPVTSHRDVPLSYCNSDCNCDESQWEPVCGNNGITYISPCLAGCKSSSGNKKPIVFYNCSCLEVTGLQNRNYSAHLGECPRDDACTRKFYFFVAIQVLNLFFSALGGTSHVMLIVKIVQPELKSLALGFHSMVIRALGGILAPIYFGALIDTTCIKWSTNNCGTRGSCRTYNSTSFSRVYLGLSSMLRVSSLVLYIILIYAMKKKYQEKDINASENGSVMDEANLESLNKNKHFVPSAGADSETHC
Further details: host or cells: Human Embryonic Kidney (HEK) cells; method as in PMID 28273180.

Molecules are shown by their SMILES.

BSEP, sequence (O95342 whole entry, species assumed): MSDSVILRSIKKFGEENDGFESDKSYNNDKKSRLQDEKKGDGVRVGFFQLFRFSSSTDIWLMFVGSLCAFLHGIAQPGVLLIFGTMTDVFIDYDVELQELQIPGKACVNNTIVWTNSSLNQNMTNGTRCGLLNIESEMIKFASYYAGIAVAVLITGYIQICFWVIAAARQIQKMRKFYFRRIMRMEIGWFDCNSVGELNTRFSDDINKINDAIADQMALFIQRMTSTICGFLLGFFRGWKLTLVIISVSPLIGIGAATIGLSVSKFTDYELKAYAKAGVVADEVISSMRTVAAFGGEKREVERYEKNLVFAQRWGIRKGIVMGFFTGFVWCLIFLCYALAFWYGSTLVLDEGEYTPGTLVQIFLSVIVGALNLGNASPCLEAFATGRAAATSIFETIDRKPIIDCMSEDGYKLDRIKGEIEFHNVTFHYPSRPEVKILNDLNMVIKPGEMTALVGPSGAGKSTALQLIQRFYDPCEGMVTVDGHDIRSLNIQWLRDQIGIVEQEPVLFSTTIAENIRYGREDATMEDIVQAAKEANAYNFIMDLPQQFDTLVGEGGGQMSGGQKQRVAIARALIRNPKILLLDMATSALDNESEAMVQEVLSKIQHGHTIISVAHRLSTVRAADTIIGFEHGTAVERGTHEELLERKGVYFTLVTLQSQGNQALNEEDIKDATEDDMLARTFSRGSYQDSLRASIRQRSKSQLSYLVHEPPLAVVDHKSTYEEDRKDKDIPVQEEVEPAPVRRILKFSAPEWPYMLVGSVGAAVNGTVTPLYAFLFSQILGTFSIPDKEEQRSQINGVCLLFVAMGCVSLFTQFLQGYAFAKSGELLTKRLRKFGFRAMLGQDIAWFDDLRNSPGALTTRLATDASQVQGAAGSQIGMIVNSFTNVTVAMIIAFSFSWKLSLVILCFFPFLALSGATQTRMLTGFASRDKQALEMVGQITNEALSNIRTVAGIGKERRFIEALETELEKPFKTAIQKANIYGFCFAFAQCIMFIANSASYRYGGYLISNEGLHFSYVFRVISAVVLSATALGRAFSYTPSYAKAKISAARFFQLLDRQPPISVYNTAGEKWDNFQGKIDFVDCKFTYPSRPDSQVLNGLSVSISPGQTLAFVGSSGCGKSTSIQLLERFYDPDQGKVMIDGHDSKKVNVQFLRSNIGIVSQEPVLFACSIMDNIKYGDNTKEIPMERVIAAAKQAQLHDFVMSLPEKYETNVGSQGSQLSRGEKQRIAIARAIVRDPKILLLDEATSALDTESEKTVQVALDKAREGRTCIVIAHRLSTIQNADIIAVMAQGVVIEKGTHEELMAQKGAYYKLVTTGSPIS

For the molecule `C[C@H](CCC(=O)O)[C@H]1CC[C@H]2[C@@H]3[C@H](O)C[C@@H]4C[C@@H](F)CC[C@]4(C)[C@H]3C[C@H](O)[C@]12C` [3βFCA], the Ki was 6.18 ± 0.59 µM in data set [1], 216 ± 53 µM in data set [2] and 9.67 ± 0.83 µM in data set [3].
